The record followed here is PubChem BioAssay AID206 (DTP/NCI, 2004).

SMILES strings stand for the structures. “And” between values parts separate entries of the source, which are not always exact repeats. Equal entries are not always repeated. Records with an inconclusive call do not appear.

For this test, the system named is nude mice, HT29 intrarenal xenograft, tumor weight T/C. The experiment in a line: NCI In Vivo Anticancer Drug Screen. Data for tumor model HT29;CX-1 Human Adenocarcinoma (MER+) (intrarenal inoculation) in NU/NU Swiss (nude) mice. The settings on record: endpoint: mean tumor weight change, higher = larger tumour. A digest of the protocol: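 Tumor-bearing mice received test compound or vehicle, and tumor size or survival was recorded. Values are the treated-group measurement divided by the vehicle-treated control measurement.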

[1] abbreviates: dose: 8.0 mg/kg/injection, schedule: Q04DX004 (sc), vehicle: saline with Tween-80.
[2] abbreviates: dose: 16.0 mg/kg/injection, schedule: Q04DX004 (sc), vehicle: saline with Tween-80.
[3] abbreviates: dose: 25.0 mg/kg/injection, schedule: Q04DX004 (sc), vehicle: water.
[4] abbreviates: dose: 50.0 mg/kg/injection, schedule: Q04DX004 (sc), vehicle: water.
[5] abbreviates: dose: 300.0 mg/kg/injection, schedule: Q04DX004 (sc), vehicle: Klucel (hydroxypropylcellulose) (HPC).
Setting [6] is: dose: 600.0 mg/kg/injection, schedule: Q04DX004 (sc), vehicle: Klucel (hydroxypropylcellulose) (HPC).
The mark [7] stands for this setting: dose: 1200.0 mg/kg/injection, schedule: Q04DX004 (sc), vehicle: Klucel (hydroxypropylcellulose) (HPC).
The mark [8] stands for this setting: dose: 200.0 mg/kg/injection, schedule: Q01DX010 (sc), vehicle: saline with Tween-80.
Where [9] appears, read: dose: 400.0 mg/kg/injection, schedule: Q01DX010 (sc), vehicle: saline with Tween-80.
Setting [10] is: dose: 800.0 mg/kg/injection, schedule: Q01DX010 (sc), vehicle: saline with Tween-80.
The mark [11] stands for this setting: dose: 100.0 mg/kg/injection, schedule: Q04DX004 (sc), vehicle: saline with Tween-80.
Setting [12] is: dose: 200.0 mg/kg/injection, schedule: Q04DX004 (sc), vehicle: saline with Tween-80.
Setting [13] is: dose: 18.75 mg/kg/injection, schedule: Q04DX004 (sc), vehicle: saline with Tween-80.
[14] abbreviates: dose: 37.5 mg/kg/injection, schedule: Q04DX004 (sc), vehicle: saline with Tween-80.
The mark [15] stands for this setting: dose: 150.0 mg/kg/injection, schedule: Q04DX004 (sc), vehicle: Klucel (hydroxypropylcellulose) (HPC).
Setting [16] is: dose: 100.0 mg/kg/injection, schedule: Q04DX004 (sc), vehicle: Klucel (hydroxypropylcellulose) (HPC).
[17] abbreviates: dose: 200.0 mg/kg/injection, schedule: Q04DX004 (sc), vehicle: Klucel (hydroxypropylcellulose) (HPC).

`CC1=C[S+](c2ccccc2)c2cccc3cc4ccccc4c1c23` (configuration not stated): the T/C under setting [1] is 45 % of control and the T/C under setting [2] is 66 % of control.

In the case of `COc1cccc2c1C(=O)c1c(O)c3c(c(O)c1C2=O)CC(O)(/C(C)=N/NC(=O)CCCCC(=O)N/N=C(\C)C1(O)Cc2c(O)c4c(c(O)c2C(OC2CC(N)C(O)C(C)O2)C1)C(=O)c1c(OC)cccc1C4=O)CC3OC1CC(N)C(O)C(C)O1` (configuration not stated), the T/C is 66 % of control (dose: 12.5 mg/kg/injection, schedule: Q04DX004 (sc), vehicle: water); 98 % of control under setting [3]; 104 % of control under setting [4]; 152 % of control (dose: 100.0 mg/kg/injection, schedule: Q04DX004 (sc), vehicle: water).

Turning to `CN(C)[C@@H]1C(=O)C(C(N)=O)=C(O)[C@@]2(O)C(=O)C3=C(O)c4c(O)ccc(Cl)c4[C@@](C)(O)[C@H]3C[C@@H]12`, the T/C (dose: 200.0 mg/kg/injection, schedule: Q04DX004 (sc), vehicle: saline) is 62 % of control; the T/C (dose: 400.0 mg/kg/injection, schedule: Q04DX004 (sc), vehicle: saline) is 87 % of control; the T/C (dose: 800.0 mg/kg/injection, schedule: Q04DX004 (sc), vehicle: saline) is 82 % of control; the T/C (dose: 1600.0 mg/kg/injection, schedule: Q04DX004 (sc), vehicle: saline) was 66 % of control.

Regarding `COc1ccc(C(=O)C(CN(C)C)CN(C)C)cc1`, the T/C was 100 % of control (dose: 12.5 mg/kg/injection, schedule: Q04DX004 (sc), vehicle: saline) and 38 % of control (dose: 25.0 mg/kg/injection, schedule: Q04DX004 (sc), vehicle: saline).

`C1CCC2OCCOCCOC3CCCCC3OCCOCCOC2C1` (configuration not stated): the T/C (dose: 37.5 mg/kg/injection, schedule: Q04DX004 (sc), vehicle: Klucel (hydroxypropylcellulose) (HPC)) is 89 % of control and the T/C (dose: 75.0 mg/kg/injection, schedule: Q04DX004 (sc), vehicle: Klucel (hydroxypropylcellulose) (HPC)) was 89 % of control.

With `C=C[Si]12OCCN(CCO1)CCO2`, the T/C is 92 % of control under setting [5]; 93 % of control under setting [6]; 110 % of control under setting [7]; 71 % of control (dose: 2400.0 mg/kg/injection, schedule: Q04DX004 (sc), vehicle: Klucel (hydroxypropylcellulose) (HPC)).

For `CS(=O)(=O)OCCN(CCOS(C)(=O)=O)c1ccc(C=O)cc1`, the T/C by setting is: (dose: 12.5 mg/kg/injection, schedule: Q01DX010 (sc), vehicle: saline) 100 % of control; (dose: 25.0 mg/kg/injection, schedule: Q01DX010 (sc), vehicle: saline) 90 % of control; (dose: 50.0 mg/kg/injection, schedule: Q01DX010 (sc), vehicle: saline) 37 % of control.

Take `CC1C=NNC1=O` (configuration not stated): the T/C runs as follows: under setting [8], 91 % of control; under setting [9], 64 % of control; under setting [10], 105 % of control.

With `Nc1cc2c3c(cccc3c1)C(=O)N(CCN1CCCC1)C2=O`, the T/C is, setting by setting: (dose: 50.0 mg/kg/injection, schedule: Q04DX004 (sc), vehicle: saline with Tween-80) 170 % of control; under setting [11], 202 % of control; under setting [12], 233 % of control; (dose: 400.0 mg/kg/injection, schedule: Q04DX004 (sc), vehicle: saline with Tween-80) 177 % of control.

Turning to `C=C1C(=O)O[C@@H]2[C@H](O)[C@@H](C)[C@@H]3C=CC(=O)[C@@]3(C)[C@H](OC(=O)C=C(C)C)[C@H]12`, the T/C (dose: 9.38 mg/kg/injection, schedule: Q04DX004 (sc), vehicle: saline with Tween-80) is 93 % of control; the T/C under setting [13] is 121 % of control; the T/C under setting [14] is 87 % of control.

As to `OCC1OC(n2cnc3c(NO)ncnc32)C(O)C1O` (configuration not stated), the T/C by setting is: under setting [15], 47 % of control; under setting [5], 46 % of control; under setting [6], 52 % of control; under setting [7], 28 % of control.

On to `O=c1[nH]c(=O)n(C2OC(CO)C(O)C2O)cc1F` (configuration not stated), for which the T/C (dose: 4.69 mg/kg/injection, schedule: Q04DX004 (sc), vehicle: saline) was 34 % of control.

On to `COc1cccc2c1C(=O)c1c(O)c3c(c(O)c1C2=O)CC(O)(C(=O)CO)CC3OC1CC(N)C(O)C(C)O1` (configuration not stated), for which, under “dose: 48.0 mg/kg/injection, schedule: Q01DX010 (sc), vehicle: saline”, the T/C was 90 % of control.

Take `CC[N](CC)[Ge]([CH2]C)[CH2]C.CC[N](CC)[Ge]([CH2]C)[CH2]C`: the T/C is, setting by setting: (dose: 12.5 mg/kg/injection, schedule: Q01DX010 (sc), vehicle: suspension in saline) 226 % of control; (dose: 25.0 mg/kg/injection, schedule: Q01DX010 (sc), vehicle: suspension in saline) 158 % of control.

In the case of `Cc1ccc(S(=O)(=O)OCOS(=O)(=O)c2ccc(C)cc2)cc1`, the T/C runs as follows: under setting [15], 118 % of control; under setting [5], 100 % of control; under setting [6], 53 % of control; under setting [7], 68 % of control.

Regarding `Cc1c(CNc2ccc(C(=O)NC(CC(=O)O)C(=O)O)cc2)ccc2nc(N)nc(N)c12` (configuration not stated), the T/C (dose: 12.5 mg/kg/injection, schedule: Q04DX004 (sc), vehicle: saline with Tween-80) was 41 % of control.

For `CNC(=O)OCc1c(COC(=O)NC)c(C)n(-c2ccc(OC)cc2)c1C`, the T/C is 69 % of control (dose: 50.0 mg/kg/injection, schedule: Q04DX004 (sc), vehicle: Klucel (hydroxypropylcellulose) (HPC)); 90 % of control under setting [16]; 46 % of control under setting [17]; 36 % of control (dose: 400.0 mg/kg/injection, schedule: Q04DX004 (sc), vehicle: Klucel (hydroxypropylcellulose) (HPC)).

Consider `Cc1cc(=O)n2c3c(c4c(cc13)c(CN(C)C)cc(=O)n4C)OC2`, for which the T/C is, setting by setting: (dose: 75.0 mg/kg/injection, schedule: Q04DX004 (sc), vehicle: saline with Tween-80) 117 % of control; (dose: 150.0 mg/kg/injection, schedule: Q04DX004 (sc), vehicle: saline with Tween-80) 57 % of control.

For `CCCCCc1cc(/C=C2/N=C(c3ccc[nH]3)C=C2OC)[nH]c1C`, the T/C is 81 % of control (dose: 4.0 mg/kg/injection, schedule: Q04DX004 (sc), vehicle: saline with Tween-80); 68 % of control under setting [1]; 55 % of control and 72 % of control under setting [2]; 76 % of control (dose: 32.0 mg/kg/injection, schedule: Q04DX004 (sc), vehicle: saline with Tween-80).

As for `Nc1n[nH]c(N)n1`, the T/C is 295 % of control (dose: 200.0 mg/kg/injection, schedule: Q01DX010 (sc), vehicle: saline); 157 % of control (dose: 400.0 mg/kg/injection, schedule: Q01DX010 (sc), vehicle: saline); 215 % of control (dose: 800.0 mg/kg/injection, schedule: Q01DX010 (sc), vehicle: saline).

In the case of `COCCCNC1=C(C#N)C(=O)NC(c2cccc([N+](=O)[O-])c2)S1` (configuration not stated), the T/C under setting [11] is 91 % of control; the T/C under setting [12] is 165 % of control; the T/C (dose: 800.0 mg/kg/injection, schedule: Q04DX004 (sc), vehicle: saline with Tween-80) was 164 % of control.

Take `COCC1OC2OC3C(COC)OC(OC4C(COC)OC(OC5C(COC)OC(OC6C(COC)OC(OC7C(COC)OC(OC8C(COC)OC(OC1C(O)C2O)C(O)C8O)C(O)C7O)C(O)C6O)C(O)C5O)C(O)C4O)C(O)C3O` (configuration not stated) (tested in a mixture with another compound): the T/C under setting [16] is 116 % of control and the T/C under setting [17] is 67 % of control.

As for `O=CN(SSN(C=O)C1CCCCC1)C1CCCCC1`, the T/C (dose: 100.0 mg/kg/injection, schedule: Q01DX010 (sc), vehicle: saline with Tween-80) was 36 % of control; the T/C under setting [8] is 178 % of control; the T/C under setting [9] is 85 % of control; the T/C under setting [10] was 90 % of control.

Take `CCCCCCCCCCC(OC(C)=O)C1CCC(C2CCC(C(O)CCCCCCCCCCCCC3C=C(C)OC3=O)O2)O1` (configuration not stated): the T/C by setting is: under setting [3], 119 % of control; under setting [4], 92 % of control.

`O=C1C2CC=CCC2C(=O)N1SC(Cl)(Cl)Cl` (configuration not stated): the T/C runs as follows: under setting [13], 96 % of control; under setting [14], 88 % of control; (dose: 300.0 mg/kg/injection, schedule: Q04DX004 (sc), vehicle: saline with Tween-80) 101 % of control; (dose: 600.0 mg/kg/injection, schedule: Q04DX004 (sc), vehicle: saline with Tween-80) 71 % of control.
